Where two headings read alike, the source gives them in different places. Square brackets hold non-standard residues; d marks the D form. Peptide text beside a SMILES is read from it. Nle = CCCC[C@H](N)C(=O)O; azaGly = NNC(=O)O
Columns and labels:
Aβ40 = target: T1, Aβ40 (Homo sapiens, UniProt P05067); assay: Thioflavin T (ThT) fluorescence assay of Aβ40 aggregation; format: biochemical; settings: for Inhibition of amyloidogenic activity(%) / Inhibition of amyloidogenic activity: ThT; for Inhibition of amyloidogenic activity: Table 4
T1 construct: The extent of Aβ40 aggregation in the presence of increasing concentrations of azacyclopeptides
Method: Amyloid generation can be identified and quantified using the thioflavin T (ThT) fluorescence dye assay. […] Agents that bind and inhibit aggregation of Aβ diminish ThT fluorescence relative to untreated Aβ. The extent of Aβ40 aggregation in the presence of increasing concentrations of azacyclopeptides and azasulfurylcyclopeptide 55 was evaluated by the ThT assay. Fluorescence of Aβ40 that was aged for 48 h was used as control, defined as 0% anti-amyloidogenic activity, and compared with fluorescence in the presence of cyclic peptide mimics at increasing concentrations to measure anti-amyloidogenic activity.

[1] = test system: rat pheochromocytoma PC12 cells; format: cell-based; design: Cells survival (%): concentration or dose not given beside the values; settings: for Cells survival (%): PC12, MTT
Method: Considering that self-assembly and aggregation of Aβ are key components of AD pathogenesis, the ability of azaGly-cyclopeptides 2-7 to reduce Aβ-induced toxicity was next tested in rat pheochromocytoma PC12 cells. Cells were incubated for 24 h with Aβ40 (10 μM) that had been aged for 48 h in the presence and absence of increasing concentrations of the azacyclopeptides. Cell viability was assessed using the 3-(4,5-dimethylthiazol-2-yl)-2,5-diphenyltetrazolium bromide (MTT) survival assay (Table 2). In this assay, viable cells reduce permeable MTT by active metabolism to produce a purple-colored formazan product with absorbance maximum near 570 nm. Dead cells lose the ability to convert MTT into formazan. The quantity of formazan is therefore directly proportional to the number of viable cells and measurable over time by recording changes in absorbance using a spectrophotometer. Neurons are susceptible to the lethal effects of misfolded proteins which are likely to aggregate at increased concentration. The pheochromocytoma (PC12) cell line is commonly used in in vitro studies to examine neuronal variation and neurotoxicity as a model of neurodegenerative disease.

[2] = Aβ:peptide 1:1, 10 μM soluble Aβ40
[3] = Aβ:peptide 1:5, 10 μM soluble Aβ40
[4] = Aβ:peptide 1:10, 10 μM soluble Aβ40
[5] = Aβ:peptide 1:0.1, 10 μM soluble Aβ40

T1 sequence (P05067 672-711 limits assumed): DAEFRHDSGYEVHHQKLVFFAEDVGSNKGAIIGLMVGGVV

Molecule	Inhibition of amyloidogenic activity (Aβ40; Aβ:peptide 1:1)	Inhibition of amyloidogenic activity (Aβ40; Aβ:peptide 1:5)	Inhibition of amyloidogenic activity (Aβ40; Aβ:peptide 1:10)	Inhibition of amyloidogenic activity(%) (Aβ40; Table 5, Aβ:peptide 1:1)	Inhibition of amyloidogenic activity(%) (Aβ40; Table 5, Aβ:peptide 1:5)	Inhibition of amyloidogenic activity(%) (Aβ40; Table 5, Aβ:peptide 1:10)	Cells survival (%) ([1]; Table 5, Aβ:peptide 1:1)	Cells survival (%) ([1]; Table 5, Aβ:peptide 1:5)	Cells survival (%) ([1]; Table 4, Aβ:peptide 1:1)	Cells survival (%) ([1]; Table 4, Aβ:peptide 1:5)	also measured
CCCC[C@@H]1NC(=O)[C@@H](CC(C)C)NC(=O)[C@H](CCCCN)NC(=O)[C@@H](CO)NC(=O)[C@H](Cc2c[nH]cn2)NC(=O)[C@@H](Cc2c[nH]c3ccccc23)NC1=O [Compound 1, Cyclo-L-lysine-D-leucine-L-norleucine-D-tryptophan-L-histidine-D-serine, reference compound] (cyclo(K[dL][Nle][dW]H[dS]))	44.6%	84.7%	92.8%	44.6%	84.7%	92.8%	–	–	–	–	Inhibition of amyloidogenic activity(%) (Aβ40; [2]): 44.6%; Inhibition of amyloidogenic activity(%) (Aβ40; [3]): 84.7%; Inhibition of amyloidogenic activity(%) (Aβ40; [4]): 92.8%
CCCC[C@@H]1NC(=O)[C@@H](CC(C)C)NC(=O)NNC(=O)[C@@H](CO)NC(=O)[C@H](Cc2c[nH]cn2)NC(=O)[C@@H](Cc2c[nH]c3ccccc23)NC1=O [Compound 2, c(D-Leu-L-Nle-D-Trp-L-His-D-Ser-Gly*)] (cyclo([azaGly][dL][Nle][dW]H[dS]))	–	–	–	–	–	–	–	–	–	–	Inhibition of amyloidogenic activity(%) (Aβ40; [5]): 63.9%; Inhibition of amyloidogenic activity(%) (Aβ40; [2]): 76.7%; effect on lag phase and ThT fluorescence (Aβ40; above stoichiometric concentrations): promoted significantly fibrilization of Aβ shortening the lag-phase and increasing ThT fluorescence; effect on lag phase and ThT fluorescence (Aβ40; at and below stoichiometric concentrations): prolonged dramatically the lag-phase and reduced ThT fluorescence; cell survival ([1]; 24 h): 87%
CCCC[C@@H]1NC(=O)[C@@H](CC(C)C)NC(=O)[C@H](CCCCN)NC(=O)[C@@H](CO)NC(=O)NNC(=O)[C@@H](Cc2c[nH]c3ccccc23)NC1=O [Compound 4, c(D-Leu-L-Nle-D-Trp-Gly*-D-Ser-L-Lys)] (cyclo(K[dL][Nle][dW][azaGly][dS]))	–	–	–	–	–	–	–	–	–	–	Inhibition of amyloidogenic activity(%) (Aβ40; [2]): 50.2%; Inhibition of amyloidogenic activity(%) (Aβ40; [3]): 75%; Inhibition of amyloidogenic activity(%) (Aβ40; [4]): 68.8%
CCCC[C@@H]1NC(=O)[C@@H](CC(C)C)NC(=O)[C@H](CCCCN)NC(=O)[C@@H](CO)NC(=O)[C@H](Cc2c[nH]cn2)NC(=O)NNC1=O [Compound 5, c(D-Leu-L-Nle-Gly*-L-His-D-Ser-L-Lys)] (cyclo(K[dL][Nle][azaGly]H[dS]))	–	–	–	–	–	–	–	–	–	–	Inhibition of amyloidogenic activity(%) (Aβ40; [5]): 55.3%; Inhibition of amyloidogenic activity(%) (Aβ40; [2]): 89.8%; Inhibition of amyloidogenic activity(%) (Aβ40; [3]): 91.1%; Inhibition of amyloidogenic activity(%) (Aβ40; [4]): 90.8%; effect on lag phase and ThT fluorescence (Aβ40; incubation with Aβ): dramatically prolonged the lag phase and reduced the ThT fluorescence
CC(C)C[C@H]1NC(=O)[C@H](CCCCN)NC(=O)[C@@H](CO)NC(=O)[C@H](Cc2c[nH]cn2)NC(=O)[C@@H](Cc2c[nH]c3ccccc23)NC(=O)NNC1=O [Compound 6, c(D-Leu-Gly*-D-Trp-L-His-D-Ser-L-Lys)] (cyclo(K[dL][azaGly][dW]H[dS]))	–	–	–	–	–	–	–	–	–	–	Inhibition of amyloidogenic activity(%) (Aβ40; [3]): 80.1%; Inhibition of amyloidogenic activity(%) (Aβ40; [4]): 81.8%; effect on lag phase and ThT fluorescence (Aβ40; incubation with Aβ): dramatically prolonged the lag phase and reduced the ThT fluorescence
CCCC[C@@H]1NC(=O)NNC(=O)[C@H](CCCCN)NC(=O)[C@@H](CO)NC(=O)[C@H](Cc2c[nH]cn2)NC(=O)[C@@H](Cc2c[nH]c3ccccc23)NC1=O [Compound 7, c(Gly*-L-Nle-D-Trp-L-His-D-Ser-L-Lys)] (cyclo(K[azaGly][Nle][dW]H[dS]))	–	–	–	–	–	–	–	–	–	–	Inhibition of amyloidogenic activity(%) (Aβ40; [3]): 78.8%; Inhibition of amyloidogenic activity(%) (Aβ40; [4]): 80.5%; effect on lag phase and ThT fluorescence (Aβ40; incubation with Aβ): dramatically prolonged the lag phase and reduced the ThT fluorescence
c(4-Phe*-L-Nlc-D-Trp-L-His-D-Ser-L-Lys) [Compound 20]	–	–	–	1.6%	48.4%	68.4%	73.0%	84.9%	–	–	–
c(D-Leu-L-Nle-D-Trp-D-His-IPrTyr*-L-Lys) [Compound 11]	–	–	–	3.5%	54.7%	54.2%	72.4%	74.3%	–	–	–
c(D-Leu-L-Nle-D-Trp-L-His-D-Ser-Lys*) [Compound 8]	54.4%	77.8%	80.9%	–	–	–	–	–	80.1%	91.3%	–
c(D-Leu-L-Nle-D-Trp-L-His-Gly^-L-Lys) [Compound 55]	–	–	–	–	–	–	76.9%	106%	–	–	–
c(D-Leu-L-Nle-D-Trp-L-His-Hse*-L-Lys) [Compound 9]	8.3%	77.9%	77.2%	–	–	–	–	–	82.8%	97.9%	–
c(D-Leu-L-Nle-D-Trp-L-His-IPrTyr*-L-Lys) [Compound 10]	–	–	–	8.2%	85.2%	86.2%	75.4%	83.4%	–	–	–
c(D-Leu-L-Nle-D-Trp-Phe*-D-Ser-L-Lys) [Compound 12]	–	–	–	54.4%	77.7%	80.9%	70.1%	87.9%	–	–	–
c(D-Leu-L-Nle-D-Trp-Pra*-D-Ser-L-Lys) [Compound 14]	–	–	–	76.9%	81.2%	81.4%	71.7%	83.5%	–	–	–
c(D-Leu-L-Nle-D-Trp-Tal*-D-Ser-L-Lys) [Compound 13]	58.0%	72.6%	78.4%	–	–	–	–	–	70.8%	96.3%	–
c(D-Leu-L-Nle-Itr*-L-His-D-Ser-L-Lys) [Compound 15]	78.0%	81.6%	86.1%	–	–	–	–	–	78.8%	71.7%	–
c(D-Leu-Nle*-D-Trp-L-His-D-Ser-L-Lys) [Compound 16]	72.9%	76.4%	85.1%	–	–	–	–	–	86.3%	94.5%	–
c(D-Leu-Phe*-D-Trp-L-His-D-Ser-L-Lys) [Compound 17]	–	–	–	3.5%	36.9%	79.8%	61.8%	69.5%	–	–	–
c(Leu*-L-Nlc-D-Trp-L-His-D-Ser-L-Lys) [Compound 18]	15.4%	17.1%	37.5%	–	–	–	–	–	72.8%	76.3%	–
c(Phe*-L-Nle-D-Trp-L-His-D-Ser-L-Lys) [Compound 19]	–	–	–	12.5%	54.5%	61.2%	73.0%	74.5%	–	–	–

Reference: patent US12616760B2, “Synthetic cyclic peptide mimetics” (priority 2020, dated 2026)
